Experimental findings from PMC5854716, “Synthesis, molecular docking, ctDNA interaction, DFT calculation and evaluation of antiproliferative and anti-Toxoplasma gondii activities of 2,4-diaminotriazine-thiazole derivatives” (Medicinal Chemistry Research, 2018) are described below.

One data set deals with VERO cells. In words: Cell viability assay (MTT), VERO. It is filed as cell-based, Cercopithecus aethiops. The note with it: 24 h; for CC30 VERO: concentration for 30% proliferation inhibition. As to the method:
(§1) The epithelial cell line VERO (ATCC-Catalog No. CCL-81^TM), derived from the kidney of the African green monkey, Cercopithecus aethiops and fibroblast cell line L-929 (ATCC-Catalog No. CCL-1^TM), derived from Mus musculus (http://www.atcc.org) were grown in Iscoves’s Modified Dulbecco’s Medium (IMDM) supplemented with 10% (v/v) fetal bovine serum (FBS), plus 2 mM L-glutamine, 100 U/ml penicillin, 100.00 µg/ml streptomycin, 5 × 10^−5 M 2-mercaptoethanol and maintained at 37 °C in a 10% CO2 atmosphere. Subcultures were performed via enzymatic cell dissociation in 0.25% trypsin. After dissociation, the cells were placed in culture medium at 4 °C with 10% FBS to inhibit the action of trypsin. The isolated cells were centrifuged for 10 min at 1000×g at 4 °C, and the cells were grown in new bottles. This procedure was repeated when cells reached a confluence of ~90%. All commercial reactants and solvents were purchased from either Sigma-Aldrich Laborchemikalien GmbH (Dzitko et al. [2014]).
(§2) Suspensions of the compounds 4a–l were freshly prepared (5 mg/ml DMSO) before the cells were exposed, and diluted to appropriate concentrations; 0.9, 1.8, 3.9, 7.8, 15.6, 31.2, 62.5, and 125.00 μg/ml with the culture medium. Cells treated with 2.5% DMSO-solvent served as a control in each experiment.
(§3) The effects of tested compounds on the viability of mouse fibroblasts L929 and […] VERO cells were evaluated using the MTT assay. The MTT assay was used according to international standards: ISO 10993-5:2009 (Tests for in vitro cytotoxicity; http://www.iso.org/iso/catalogue_detail.htm? csnumber = 36406). L929 and VERO cells were plated into 96-well plates at a density of 1.0 × 10^4/100 μl/well in culture medium and allowed to attach for 24 h before treatment. Afterwards, culture medium in the plates was replaced by 100 μl compounds suspension at concentration of 0–125 μg/ml and the cells were exposed for 24 h. Then 1 mg/ml MTT (50 μl/well) was added to each well and incubated at 37 °C, 10 % CO2 for 2 h. Mitochondrial dehydrogenases of viable cells reduce the yellowish water-soluble MTT to water-insoluble formazan crystals, which were solubilized with dimethyl sulfoxide (DMSO). The cell culture medium was aspirated cautiously, after which 150 μl DMSO was added to each well and mixed thoroughly. Optical density (OD) was read on the ELISA reader (Multiskan EX, Labsystems; http://www.mtxlsi.com/multiskan_EX.htm) at 550 nm. The results were expressed as percentage viability compared with the treated 2.5% DMSO controls. All experiments were performed in triplicate.

The test system of the next data set is mouse L929 fibroblast. In words: Cell viability assay (MTT), L929. Format: cell-based. The note with it: 24 h; for CC30 L929: concentration for 30% proliferation inhibition. The protocol: as §1, §2, §3
For data set [1], the system named is human breast carcinoma MCF-7 cells. In words: In vitro antiproliferative assay (SRB), MCF-7. The note with it: 72 h exposure, mean ± SD. Format: cell-based. The protocol:
(§4) Biphenotypic B myelomonocytic leukemia MV4-11, human lung carcinoma A549, human breast carcinoma MCF-7, and normal mouse fibroblast BALB/3T3 cells were obtained from American Type Culture Collection (Rockville, Maryland, USA). All the cell lines are being maintained at the Institute of Immunology and Experimental Therapy, Wroclaw, Poland. MV4-11 cells were cultured in RPMI 1640 medium (Gibco, UK) with 2 mM L-glutamine adjusted to contain 1.0 mM sodium pyruvate, and 10% fetal bovine serum (FBS) (all from Sigma-Aldrich, Germany). A549 cells were cultured in RPMI 1640+ Opti-MEM (1:1) (both from Gibco, UK), MCF-7 cells in Eagle medium (IIET, Wroclaw, Poland), BALB/3T3 in Dulbecco medium (IIET, Poland) supplemented with 2 mM L-glutamine and 1.0 mM sodium pyruvate, 10% fetal bovine serum (all from Sigma-Aldrich, Germany). The MCF-7 cell culture was supplemented with 0.8 mg/l of insulin (Sigma-Aldrich, Germany). All culture media were supplemented with 100 units/ml penicillin, and 100 µg/ml streptomycin (both from Polfa Tarchomin S.A., Poland). All cell lines were grown at 37 °C with 5% CO2 humidified atmosphere (Łączkowski et al. [2014], [2016a]). Prior to usage, the compounds were dissolved in DMSO and culture medium (1: 9) to the concentration of 1 mg/ml, and subsequently diluted in culture medium to reach the required concentrations (0.1, 1, 10, and 100 µg/ml) (Łączkowski et al. [2014], [2016a]). Twenty-four hours prior to the addition of the tested compounds, the cells counted using Burker hemocytometer were plated in 96-well plates (Sarstedt, Germany) at a density of 1 × 10^4 cells per well. The assay was performed after 72 h of exposure to varying concentrations of the tested agents. The in vitro cytotoxic effect of all agents was examined using the SRB assay for adherent cells (A549, MCF-7, and BALB/3T3) or MTT assay for leukemia cells (MV4-11) as described previously. […] Each compound in each concentration was tested in triplicate in a single experiment, which was repeated 3–7 times (Rubinstein et al. [1990]; Bramson et al. [1995]). Cells were attached to the bottom of plastic wells by fixing them with cold 50% TCA (trichloroacetic acid, POCH, Gliwice, Poland) on top of the culture medium in each well. The plates were incubated at 4 °C for 1 h and then washed five times with tap water. The cellular material fixed with TCA was stained with 0.1% sulforhodamine B (SRB, Sigma-Aldrich, Germany) and dissolved in 1% acetic acid (POCH, Gliwice, Poland) for 30 min. Unbound dye was removed by rinsing (4×) in 1% acetic acid. The protein-bound dye was extracted with 10 mM unbuffered Tris base (Sigma-Aldrich, Germany) for determination of the optical density (λ = 540 nm) in a computer-interfaced, 96-well Synergy H4 (BioTek Instruments USA) photometer microtiter plate reader (Sidoryk et al. [2012]).

Data set [2] relates to human lung carcinoma A549 cells. In words: In vitro antiproliferative assay (SRB), A549. Format: cell-based. The note with it: 72 h exposure, mean ± SD. As to the method: as §4

Some results are limits rather than exact numbers.

As to `C/C(=N\Nc1nc(-c2ccc3[nH]c(=O)oc3c2)cs1)c1ccc(Nc2nc(N)nc(N)n2)cc1` [Compound 4l, (E)-6-(2-(2-(1-(4-(4,6-diamino-1,3,5-triazin-2-yloamino)phenyl)ethylidene)hydrazinyl)thiazol-4-yl)-benzo[d]oxazol-2(3H)-on], the “Viability VERO” value in the data set on VERO cells (0.9 µg/ml) is given as 97.13%; in the data set with VERO cells (1.8 µg/ml) it was 87.85%; in the data set on VERO cells (3.9 µg/ml), 95.16%; in the data set on VERO cells (7.8 µg/ml), 91.03%; with VERO cells (15.6 µg/ml), 96.08%; with VERO cells (31.2 µg/ml), 95.40%. In addition, the “Viability VERO” value in the data set with VERO cells (62.5 µg/ml) was 97.33%. Besides, the “CC30 VERO” value in the data set with VERO cells is greater than 62.5 µg/mL. Besides, the “Viability L929” value with mouse L929 fibroblast (0.9 µg/ml) is given as 103.88%; with mouse L929 fibroblast (1.8 µg/ml), 109.00%; with mouse L929 fibroblast (3.9 µg/ml) it was 103.03%; in the data set on mouse L929 fibroblast (7.8 µg/ml), 101.74%; in the data set with mouse L929 fibroblast (15.6 µg/ml), 105.02%; with mouse L929 fibroblast (31.2 µg/ml) it was 105.52%. Moreover, the “Viability L929” value in the data set on mouse L929 fibroblast (62.5 µg/ml) was 108.10%. Also, the “CC30 L929” value in the data set with mouse L929 fibroblast was greater than 62.5 µg/mL.

Regarding `CC(=O)Nc1ccc(-c2csc(N/N=C(\C)c3ccc(Nc4nc(N)nc(N)n4)cc3)n2)cc1` [Compound 4g, (E)-N^2-(4-(2-(2-(1-(4-(4,6-diamino-1,3,5-triazin-2-yloamino)phenyl)ethylidene)hydraziny)thiazol-4-yl)phenyl)-acetamide], the “IC50 MCF-7” value in data set [1] was 6.67 ± 2.958 µg/mL. The “IC50 A549” value in data set [2] is on record as “no antiproliferative activity”. The “Viability VERO” value in the data set on VERO cells (0.9 µg/ml) stood at 93.72%; in the data set with VERO cells (1.8 µg/ml), 90.59%; in the data set with VERO cells (3.9 µg/ml), 95.35%; with VERO cells (7.8 µg/ml) it was 98.14%; in the data set with VERO cells (15.6 µg/ml) it was 98.43%; in the data set with VERO cells (31.2 µg/ml), 98.96%. The “Viability VERO” value in the data set on VERO cells (62.5 µg/ml) worked out at 94.25%; with VERO cells (125.0 µg/ml), 91.41%. For the same molecule, the “CC30 VERO” value in the data set with VERO cells is greater than 125.0 µg/mL. Besides, the “Viability L929” value in the data set on mouse L929 fibroblast (0.9 µg/ml) came to 102.34%; in the data set on mouse L929 fibroblast (1.8 µg/ml), 102.12%; in the data set on mouse L929 fibroblast (3.9 µg/ml), 100.36%; in the data set with mouse L929 fibroblast (7.8 µg/ml), 98.86%; with mouse L929 fibroblast (15.6 µg/ml), 94.31%; in the data set on mouse L929 fibroblast (31.2 µg/ml) it was 99.83%. Besides, the “Viability L929” value in the data set on mouse L929 fibroblast (62.5 µg/ml) is on record as 103.01%; with mouse L929 fibroblast (125.0 µg/ml) it was 105.39%. In addition, in the data set on mouse L929 fibroblast, the “CC30 L929” value was greater than 125.0 µg/mL.

For `C/C(=N\Nc1nc(-c2ccc(NS(C)(=O)=O)cc2)cs1)c1ccc(Nc2nc(N)nc(N)n2)cc1` [Compound 4j, (E)-N-(4-(2-(2-(1-(4-(4,6-diamino-1,3,5-triazin-2-yloamino)phenyl)ethylidene)hydrazinyl)thiazol-4-yl)phenyl)-methanesulfonamide], the “IC50 MCF-7” value in data set [1] amounted to 5.95 ± 2.165 µg/mL. Also, the “IC50 A549” value in data set [2] is “no antiproliferative activity”. Besides, the “Viability VERO” value was found to be 79.82% with VERO cells (0.9 µg/ml); 93.81% with VERO cells (1.8 µg/ml); 93.62% in the data set on VERO cells (3.9 µg/ml); 89.25% in the data set on VERO cells (7.8 µg/ml); 90.98% with VERO cells (15.6 µg/ml); 96.22% with VERO cells (31.2 µg/ml). In addition, the “Viability VERO” value in the data set on VERO cells (62.5 µg/ml) is recorded as 97.76%; in the data set with VERO cells (125.0 µg/ml), 89.44%. Also, the “CC30 VERO” value in the data set with VERO cells is greater than 125.0 µg/mL. Besides, the “Viability L929” value worked out at 98.90% in the data set with mouse L929 fibroblast (0.9 µg/ml); 106.36% with mouse L929 fibroblast (1.8 µg/ml); 104.20% in the data set with mouse L929 fibroblast (3.9 µg/ml); 101.86% in the data set with mouse L929 fibroblast (7.8 µg/ml); 100.71% in the data set on mouse L929 fibroblast (15.6 µg/ml); 104.07% with mouse L929 fibroblast (31.2 µg/ml). Moreover, the figures for the “Viability L929” value in the data set with mouse L929 fibroblast (62.5 µg/ml) and with mouse L929 fibroblast (125.0 µg/ml) were 102.92% and 106.67%, respectively. The “CC30 L929” value in the data set on mouse L929 fibroblast is greater than 125.0 µg/mL.

On to `C/C(=N\Nc1nc(-c2cc3ccccc3oc2=O)cs1)c1ccc(Nc2nc(N)nc(N)n2)cc1` [Compound 4f, (E)-3-(2-(2-(1-(4-(4,6-diamino-1,3,5-triazin-2-yloamino)phenyl)ethylidene)hydrazinyl)thiazol-4-yl)-2H-chromen-2-on], for which the “IC50 MCF-7” value in data set [1] is “─”. Besides, in data set [2], the “IC50 A549” value was “no antiproliferative activity”. Also, the “Viability VERO” value in the data set on VERO cells (0.9 µg/ml) is reported as 97.81%; with VERO cells (1.8 µg/ml), 100.84%; in the data set with VERO cells (3.9 µg/ml), 104.30%; in the data set on VERO cells (7.8 µg/ml), 104.39%; in the data set with VERO cells (15.6 µg/ml), 108.19%; in the data set with VERO cells (31.2 µg/ml), 117.52%. The figures for the “Viability VERO” value in the data set with VERO cells (62.5 µg/ml) and in the data set with VERO cells (125.0 µg/ml) were 103.77% and 111.27%, respectively. The “CC30 VERO” value in the data set on VERO cells is greater than 125.0 µg/mL. Moreover, the “Viability L929” value is 98.99% in the data set on mouse L929 fibroblast (0.9 µg/ml); 102.21% with mouse L929 fibroblast (1.8 µg/ml); 101.95% in the data set on mouse L929 fibroblast (3.9 µg/ml); 96.25% with mouse L929 fibroblast (7.8 µg/ml); 100.89% with mouse L929 fibroblast (15.6 µg/ml); 104.60% with mouse L929 fibroblast (31.2 µg/ml). Further, the “Viability L929” value in the data set with mouse L929 fibroblast (62.5 µg/ml) worked out at 109.54%; in the data set with mouse L929 fibroblast (125.0 µg/ml), 108.66%. In the data set on mouse L929 fibroblast, the “CC30 L929” value was greater than 125.0 µg/mL.
